What was measured:
[1] = Cytotoxicity against mouse RAW264.7 cells assessed as cell viability at 10 uM by MTS assay relative to control
RAW264.7 = assay: Inhibition of ROS production in LPS-induced mouse RAW264.7 cells; type: functional, cell-based

| IC50 (RAW264.7) [nM] | SMILES | viability at 10 µM [1] [%] |
| --- | --- | --- |
| > 10000 | O=C1/C(=C/c2ccccn2)CCc2cc(O)ccc21 | > 90 |
| 500 | O=C1/C(=C/c2ccccc2Br)CCc2ccc(O)cc21 | > 90 |
| 1970 | O=C1/C(=C/c2cccc(C(F)(F)F)c2)CCc2c(O)cccc21 | > 90 |
| 1230 | O=C1/C(=C/c2cccc(F)c2)CCc2cc(O)ccc21 | > 90 |
| 740 | O=C1/C(=C/c2ccccn2)CCc2c(O)cccc21 | > 90 |
| – | O=C1/C(=C/c2ccccc2OC(F)(F)F)CCc2c(O)cccc21 | < 90 |
| 1320 | O=C1/C(=C/c2ccccc2)CCc2cc(O)ccc21 | > 90 |
| 420 | O=C1/C(=C/c2ccccc2OC(F)(F)F)CCc2ccc(O)cc21 | > 90 |
| – | O=C1/C(=C/c2ccc(O)cc2)CCc2cc(O)ccc21 | < 90 |
| – | O=C1/C(=C/c2ccc(C(F)(F)F)cc2)CCc2c(O)cccc21 | < 90 |
| 710 | O=C1/C(=C/c2ccccc2)CCc2ccc(O)cc21 | > 90 |
| 1020 | O=C1/C(=C/c2ccccc2C(F)(F)F)CCc2ccc(O)cc21 | > 90 |
| 1750 | O=C1/C(=C/c2cccc(Cl)c2)CCc2cc(O)ccc21 | > 90 |
| 1100 | O=C1/C(=C/c2ccc(Cl)cc2)CCc2ccc(O)cc21 | > 90 |
| – | O=C1/C(=C/c2ccc(Br)cc2)CCc2c(O)cccc21 | < 90 |
| 1520 | O=C1/C(=C/c2ccc(Br)cc2)CCc2cc(O)ccc21 | > 90 |
| 3830 | O=C1/C(=C/c2ccccc2C(F)(F)F)CCc2c(O)cccc21 | > 90 |
| – | O=C1/C(=C/c2ccc(Cl)cc2)CCc2c(O)cccc21 | < 90 |
| 3260 | O=C1/C(=C/c2ccc(C(F)(F)F)cc2)CCc2cc(O)ccc21 | > 90 |
| 1700 | O=C1/C(=C/c2cccc(Br)c2)CCc2c(O)cccc21 | > 90 |
| 2030 | O=C1/C(=C/c2cccnc2)CCc2cc(O)ccc21 | > 90 |
| 1240 | O=C1/C(=C/c2ccccc2Br)CCc2c(O)cccc21 | > 90 |

| IC50 (RAW264.7) [nM] | SMILES | viability at 10 µM [1] [%] |
| --- | --- | --- |
| – | O=C1/C(=C/c2ccccc2OC(F)(F)F)CCc2cc(O)ccc21 | < 90 |
| 980 | O=C1/C(=C/c2ccc(OC(F)(F)F)cc2)CCc2ccc(O)cc21 | > 90 |
| – | O=C1/C(=C/c2ccccn2)CCc2ccc(O)cc21 | < 90 |
| 2480 | O=C1/C(=C/c2ccc(Cl)cc2)CCc2cc(O)ccc21 | > 90 |
| – | O=C1/C(=C/c2cccc(C(F)(F)F)c2)CCc2ccc(O)cc21 | < 90 |
| 550 | O=C1/C(=C/c2ccccc2O)CCc2cc(O)ccc21 | > 90 |
| – | O=C1/C(=C/c2cccc(OC(F)(F)F)c2)CCc2c(O)cccc21 | < 90 |
| 1370 | O=C1/C(=C/c2ccc(F)cc2)CCc2cc(O)ccc21 | > 90 |
| 270 | O=C1/C(=C/c2ccccc2Cl)CCc2ccc(O)cc21 | > 90 |
| – | O=C1/C(=C/c2ccc(O)cc2)CCc2c(O)cccc21 | < 90 |
| – | O=C1/C(=C/c2cccc(O)c2)CCc2c(O)cccc21 | < 90 |
| – | O=C1/C(=C/c2ccccc2O)CCc2c(O)cccc21 | < 90 |
| – | O=C1/C(=C/c2cccc(Cl)c2)CCc2c(O)cccc21 | < 90 |
| 210 | O=C1/C(=C/c2cccc(Cl)c2)CCc2ccc(O)cc21 | > 90 |
| – | O=C1/C(=C/c2ccccc2C(F)(F)F)CCc2cc(O)ccc21 | < 90 |
| 1350 | O=C1/C(=C/c2ccc(OC(F)(F)F)cc2)CCc2cc(O)ccc21 | > 90 |
| – | O=C1/C(=C/c2ccccc2)CCc2c(O)cccc21 | < 90 |
| – | O=C1/C(=C/c2ccc(O)cc2)CCc2ccc(O)cc21 | < 90 |
| > 10000 | O=C1/C(=C/c2ccc(C(F)(F)F)cc2)CCc2ccc(O)cc21 | > 90 |
| 2950 | O=C1/C(=C/c2cccnc2)CCc2c(O)cccc21 | > 90 |
| 1350 | O=C1/C(=C/c2ccccc2F)CCc2ccc(O)cc21 | > 90 |
| 830 | O=C1/C(=C/c2cccc(F)c2)CCc2ccc(O)cc21 | > 90 |

| IC50 (RAW264.7) [nM] | SMILES | viability at 10 µM [1] [%] |
| --- | --- | --- |
| 800 | O=C1/C(=C/c2ccc(Br)cc2)CCc2ccc(O)cc21 | > 90 |
| – | O=C1/C(=C/c2ccc(OC(F)(F)F)cc2)CCc2c(O)cccc21 | < 90 |
| 480 | O=C1/C(=C/c2cccc(Br)c2)CCc2ccc(O)cc21 | > 90 |
| 3510 | O=C1/C(=C/c2cccc(O)c2)CCc2cc(O)ccc21 | > 90 |
| 1740 | O=C1/C(=C/c2ccccc2F)CCc2cc(O)ccc21 | > 90 |
| – | O=C1/C(=C/c2ccccc2O)CCc2ccc(O)cc21 | < 90 |
| 520 | O=C1/C(=C/c2cccc(OC(F)(F)F)c2)CCc2cc(O)ccc21 | > 90 |
| – | O=C1/C(=C/c2cccc(OC(F)(F)F)c2)CCc2ccc(O)cc21 | < 90 |
| 1910 | O=C1/C(=C/c2ccccc2Cl)CCc2cc(O)ccc21 | > 90 |
| 1280 | O=C1/C(=C/c2ccccc2Cl)CCc2c(O)cccc21 | > 90 |
| 1070 | O=C1/C(=C/c2ccccc2Br)CCc2cc(O)ccc21 | > 90 |
| 4170 | O=C1/C(=C/c2ccncc2)CCc2c(O)cccc21 | > 90 |
| – | O=C1/C(=C/c2ccc(F)cc2)CCc2c(O)cccc21 | < 90 |
| 180 | O=C1/C(=C/c2cccc(C(F)(F)F)c2)CCc2cc(O)ccc21 | > 90 |
| – | O=C1/C(=C/c2ccccc2F)CCc2c(O)cccc21 | < 90 |
| 840 | O=C1/C(=C/c2ccc(F)cc2)CCc2ccc(O)cc21 | > 90 |
| 810 | O=C1/C(=C/c2cccc(O)c2)CCc2ccc(O)cc21 | > 90 |
| – | O=C1/C(=C/c2cccc(F)c2)CCc2c(O)cccc21 | < 90 |
| 2340 | O=C1/C(=C/c2ccncc2)CCc2ccc(O)cc21 | > 90 |
| 3040 | O=C1/C(=C/c2cccnc2)CCc2ccc(O)cc21 | > 90 |
| 1140 | O=C1/C(=C/c2cccc(Br)c2)CCc2cc(O)ccc21 | > 90 |

Reference: ChEMBL document CHEMBL5104162, “Potent inhibitory activity of hydroxylated 2-benzylidene-3,4-dihydronaphthalen-1(2H)-ones on LPS-stimulated reactive oxygen species production in RAW 264.7 macrophages” (Bioorg Med Chem Lett, 2022)
